Laboratory results from PMC2074348, “Preclinical in vivo efficacy of two 9-dihydrotaxane analogues against human and murine tumours” (British Journal of Cancer, 1996).
In brackets after ≈: the same amount, converted by molar mass. Read-outs that look alike come from different tables or passages of the source.

Legend:
[1] = system: A549; assay: In vitro tumour cell cytotoxicity, colorimetric MTT assay, 72 h; format: cell-based, human; conditions: 72 h exposure
[2] = Pharmacokinetics following i.p. dosing in mice; conditions: for t1/2 / Cmax / Tmax / AUC / AUC value (rounded) / Cmax (rounded): 20 mg kg-1 i.p.; for t1/2 / Cmax / Tmax / AUC: male CD-1 mice; for t1/2 / AUC / AUC value (rounded) / Cmax (rounded): plasma; for Cmax / Tmax: plasma (Table VI); for AUC: 0-12 h, trapezoidal (Table VI); for AUC value (rounded) / Cmax (rounded): mice; for Serum concentrations compared with paclitaxel: at equal dosages
[3] = system: HT-29; assay: In vitro tumour cell cytotoxicity, colorimetric MTT assay, 72 h; format: cell-based, human; conditions: 72 h exposure
[4] = system: P388; assay: as above; format: cell-based, murine; conditions: 72 h exposure
[5] = system: A549, HT-29, B16F10 and P388 tumour cells; assay: In vitro cytotoxicity across the four tumour cell lines, compared with paclitaxel; format: cell-based; conditions: human and murine tumour cells
[6] = system: murine B16F10 melanoma ascites tumour; assay: In vivo efficacy vs i.p. B16F10 melanoma ascites tumour; conditions: for Cure rate at optimal non-toxic dose / Optimal increase in life span (ILS): at non-toxic doses; for %ILS (group mean increase in lifespan) / MST (mean survival time ± s.d.) / Per cent cures (mice alive 60 days after inoculation) / Per cent toxicity (mice with premature death): q.d., i.p., days 1-5 after inoculation, BDF1 mice; for Efficacy against murine B16 ascites tumour compared with paclitaxel: mouse, in vivo
[7] = system: B16F10; assay: In vitro tumour cell cytotoxicity, colorimetric MTT assay, 72 h; format: cell-based, murine; conditions: 72 h exposure
[8] = system: murine M109 solid tumour; assay: In vivo efficacy vs subcutaneous M109 solid tumour; conditions: for Days (1.0 g): days to reach mean tumour mass = 1.0 g ± s.d. / Delay (1.0 g): delay to reach mean tumour mass = 1.0 g, compared with untreated / Per cent cures (mice with no palpable tumours, day 60) / Per cent toxicity / TWI (per cent tumour weight inhibition when untreated control mean = 1.0 g): q.d., i.p., days 1, 5, 9 after inoculation, s.c. tumour, BDF1 mice; for Optimal dose: i.p. every fourth day for three total injections (days 1, 5, 9 after inoculation); for Delay in solid tumour growth to 1 g: paclitaxel at a non-toxic dose
[9] = system: human MX-1 xenograft solid tumour; conditions: for Cure rate / Delay in tumour growth compared with untreated controls: once daily on days 1-5 after inoculation
[10] = system: BDF mice bearing B16F10 ascites tumours; conditions: […]
[11] = i.p. once daily for 5 consecutive days
[12] = dose 12.5 mg kg-1 per day, q.d., i.p., days 1-5 after inoculation, s.c. xenograft, nude mice
[13] = dose 25 mg kg-1 per day, q.d., i.p., days 1-5 after inoculation, s.c. xenograft, nude mice
[14] = dose 50 mg kg-1 per day, q.d., i.p., days 1-5 after inoculation, s.c. xenograft, nude mice
[15] = dose 100 mg kg-1 per day, q.d., i.p., days 1-5 after inoculation, s.c. xenograft, nude mice

CC(=O)O[C@@H]1C2=C(C)[C@@H](OC(=O)[C@H](O)[C@@H](NC(=O)c3ccccc3)c3ccccc3)C[C@@](O)([C@@H](OC(=O)c3ccccc3)[C@@H]3[C@]4(OC(C)=O)CO[C@@H]4C[C@H](O)[C@@]3(C)[C@H]1O)C2(C)C [Compound A-85576, 9-dihydrotaxol]
IC50 [1]: 0.019 µg/mL (≈ 0.0222 µM)
t1/2 [2]: 1.9 h
Cmax [2]: 40.32 ig ml-1
Tmax [2]: 0.58 h
AUC [2]: 75.62 ig per h ml-1
AUC value (rounded) [2]: over 75 jg h-1 ml-1
Cmax (rounded) [2]: 40 jg ml-1
Serum concentrations compared with paclitaxel [2]: greater than paclitaxel
IC50 [3]: 0.008 µg/mL (≈ 0.00935 µM)
IC50 [4]: 0.053 µg/mL (≈ 0.0619 µM)
In vitro potency compared with paclitaxel [5]: generally less than that of paclitaxel
Cure rate at optimal non-toxic dose [6, 11]: 0%
Optimal increase in life span (ILS) [6, 11]: 39%
%ILS (group mean increase in lifespan) ([6]; dose 25 mg kg-1 per day): 21%
MST (mean survival time ± s.d.) ([6]; dose 25 mg kg-1 per day): 23.9 ± 4.3 days
Per cent cures (mice alive 60 days after inoculation) ([6]; dose 25 mg kg-1 per day): 0%
Per cent toxicity (mice with premature death) ([6]; dose 25 mg kg-1 per day): 0%
%ILS (group mean increase in lifespan) ([6]; dose 50 mg kg-1 per day): 39%
Per cent cures (mice alive 60 days after inoculation) ([6]; dose 50 mg kg-1 per day): 0%
Per cent toxicity (mice with premature death) ([6]; dose 50 mg kg-1 per day): 0%
%ILS (group mean increase in lifespan) ([6]; dose 100 mg kg-1 per day): 46%
Per cent cures (mice alive 60 days after inoculation) ([6]; dose 100 mg kg-1 per day): 0%
Per cent toxicity (mice with premature death) ([6]; dose 100 mg kg-1 per day): 20%
Optimal dose [6, 11]: 50 mg/kg/day
Efficacy against murine B16 ascites tumour compared with paclitaxel [6]: less effective
IC50 [7]: 0.025 µg/mL (≈ 0.0292 µM)
Days (1.0 g): days to reach mean tumour mass = 1.0 g ± s.d. ([8]; dose 25 mg kg-1 per day): 13.6+2.3 days
Delay (1.0 g): delay to reach mean tumour mass = 1.0 g, compared with untreated ([8]; dose 25 mg kg-1 per day): 1.6 days
Per cent cures (mice with no palpable tumours, day 60) ([8]; dose 25 mg kg-1 per day): 0%
Per cent toxicity ([8]; dose 25 mg kg-1 per day): 0%
TWI (per cent tumour weight inhibition when untreated control mean = 1.0 g) ([8]; dose 25 mg kg-1 per day): 34%
Days (1.0 g): days to reach mean tumour mass = 1.0 g ± s.d. ([8]; dose 50 mg kg-1 per day): 14.1+3.2 days
Delay (1.0 g): delay to reach mean tumour mass = 1.0 g, compared with untreated ([8]; dose 50 mg kg-1 per day): 2.1 days
Per cent cures (mice with no palpable tumours, day 60) ([8]; dose 50 mg kg-1 per day): 0%
Per cent toxicity ([8]; dose 50 mg kg-1 per day): 0%
TWI (per cent tumour weight inhibition when untreated control mean = 1.0 g) ([8]; dose 50 mg kg-1 per day): 46%
Delay (1.0 g): delay to reach mean tumour mass = 1.0 g, compared with untreated ([8]; dose 100 mg kg-1 per day): 10.5 days
Per cent cures (mice with no palpable tumours, day 60) ([8]; dose 100 mg kg-1 per day): 0%
Per cent toxicity ([8]; dose 100 mg kg-1 per day): 0%
TWI (per cent tumour weight inhibition when untreated control mean = 1.0 g) ([8]; dose 100 mg kg-1 per day): 90%
Optimal dose [8]: 100 mg kg-1 injection
Delay in solid tumour growth to 1 g [8]: 10.5 days
Delay (1.0 g) (footnote: delay to reach mean tumour mass = 0.5 g, compared with untreated) [9, 12]: 1.6 days
Per cent cures (mice with no palpable tumours, day 60) [9, 12]: 0%
Per cent toxicity [9, 12]: 0%
TWI (per cent tumour weight inhibition when untreated control mean = 0.5 g) [9, 12]: 31%
Delay (1.0 g) (footnote: delay to reach mean tumour mass = 0.5 g, compared with untreated) [9, 13]: 5.9 days
Per cent cures (mice with no palpable tumours, day 60) [9, 13]: 0%
Per cent toxicity [9, 13]: 0%
TWI (per cent tumour weight inhibition when untreated control mean = 0.5 g) [9, 13]: 65%
Delay (1.0 g) (footnote: delay to reach mean tumour mass = 0.5 g, compared with untreated) [9, 14]: 12.4 days
Per cent toxicity [9, 14]: 0%
TWI (per cent tumour weight inhibition when untreated control mean = 0.5 g) [9, 14]: 94%
Delay (1.0 g) (footnote: delay to reach mean tumour mass = 0.5 g, compared with untreated) [9, 15]: 21.1 days
Per cent cures (mice with no palpable tumours, day 60) [9, 15]: 60%
Per cent toxicity [9, 15]: 0%
TWI (per cent tumour weight inhibition when untreated control mean = 0.5 g) [9, 15]: 98%
Cure rate [9]: 60%
Delay in tumour growth compared with untreated controls [9]: 21 days

CC(=O)OC12COC1CC(O)C1(C)C(O)C(O)C3=C(C)C(OC(=O)C(O)C(NC(=O)c4ccccc4)c4ccccc4)CC(O)(C(OC(=O)c4ccccc4)C21)C3(C)C (stereo not drawn) [Compound A-86415, 10-deacetyl-9-dihydrotaxol]
IC50 [1]: 0.011 µg/mL (≈ 0.0135 µM)
t1/2 [2]: 2.8 h
Cmax [2]: 11.19 ig ml-1
Tmax [2]: 1.40 h
AUC [2]: 29.81 ig per h ml-1
AUC value (rounded) [2]: 30 jg h-1 ml-1
Cmax (rounded) [2]: 11 jg ml-1
Serum concentrations compared with paclitaxel [2]: less than paclitaxel
IC50 [3]: 0.0019 µg/mL (≈ 0.00233 µM)
IC50 [4]: 0.014 µg/mL (≈ 0.0172 µM)
In vitro potency compared with paclitaxel [5]: generally less than that of paclitaxel
Cure rate at optimal non-toxic dose [6, 11]: 10%
Optimal increase in life span (ILS) [6, 11]: 83%
%ILS (group mean increase in lifespan) ([6]; dose 25 mg kg-1 per day): 52%
Per cent cures (mice alive 60 days after inoculation) ([6]; dose 25 mg kg-1 per day): 0%
Per cent toxicity (mice with premature death) ([6]; dose 25 mg kg-1 per day): 0%
%ILS (group mean increase in lifespan) ([6]; dose 50 mg kg-1 per day): 83%
MST (mean survival time ± s.d.) ([6]; dose 50 mg kg-1 per day): 36.1 ± 4.5 days
Per cent cures (mice alive 60 days after inoculation) ([6]; dose 50 mg kg-1 per day): 10%
Per cent toxicity (mice with premature death) ([6]; dose 50 mg kg-1 per day): 0%
%ILS (group mean increase in lifespan) ([6]; dose 100 mg kg-1 per day): 77%
Per cent cures (mice alive 60 days after inoculation) ([6]; dose 100 mg kg-1 per day): 0%
Per cent toxicity (mice with premature death) ([6]; dose 100 mg kg-1 per day): 0%
Efficacy against murine B16 ascites tumour compared with paclitaxel [6]: as effective as paclitaxel
MTD (q.d. days 1-5) [10]: greater than 100 mg kg-1 per day
IC50 [7]: 0.039 µg/mL (≈ 0.0479 µM)
Days (1.0 g): days to reach mean tumour mass = 1.0 g ± s.d. ([8]; dose 25 mg kg-1 per day): 12.0+0 days
Delay (1.0 g): delay to reach mean tumour mass = 1.0 g, compared with untreated ([8]; dose 25 mg kg-1 per day): 0 days
Per cent cures (mice with no palpable tumours, day 60) ([8]; dose 25 mg kg-1 per day): 0%
Per cent toxicity ([8]; dose 25 mg kg-1 per day): 0%
TWI (per cent tumour weight inhibition when untreated control mean = 1.0 g) ([8]; dose 25 mg kg-1 per day): 10%
Days (1.0 g): days to reach mean tumour mass = 1.0 g ± s.d. ([8]; dose 50 mg kg-1 per day): 12.0+0 days
Delay (1.0 g): delay to reach mean tumour mass = 1.0 g, compared with untreated ([8]; dose 50 mg kg-1 per day): 0 days
Per cent cures (mice with no palpable tumours, day 60) ([8]; dose 50 mg kg-1 per day): 0%
Per cent toxicity ([8]; dose 50 mg kg-1 per day): 0%
TWI (per cent tumour weight inhibition when untreated control mean = 1.0 g) ([8]; dose 50 mg kg-1 per day): 19%
Delay (1.0 g): delay to reach mean tumour mass = 1.0 g, compared with untreated ([8]; dose 100 mg kg-1 per day): 5.1 days
Per cent cures (mice with no palpable tumours, day 60) ([8]; dose 100 mg kg-1 per day): 0%
Per cent toxicity ([8]; dose 100 mg kg-1 per day): 0%
TWI (per cent tumour weight inhibition when untreated control mean = 1.0 g) ([8]; dose 100 mg kg-1 per day): 79%
Optimal dose [8]: 100 mg kg-1 injection
Delay in solid tumour growth to 1 g [8]: 5.1 days
Delay (1.0 g) (footnote: delay to reach mean tumour mass = 0.5 g, compared with untreated) [9, 12]: 0 days
Per cent cures (mice with no palpable tumours, day 60) [9, 12]: 20%
Per cent toxicity [9, 12]: 0%
TWI (per cent tumour weight inhibition when untreated control mean = 0.5 g) [9, 12]: 27%
Days to 1.0 g (footnote: days to reach mean tumour mass = 0.5 g ± s.d.) [9, 13]: 33.3 + 7.6 days
Delay (1.0 g) (footnote: delay to reach mean tumour mass = 0.5 g, compared with untreated) [9, 13]: 5.4 days
Per cent cures (mice with no palpable tumours, day 60) [9, 13]: 10%
Per cent toxicity [9, 13]: 0%
TWI (per cent tumour weight inhibition when untreated control mean = 0.5 g) [9, 13]: 73%
Delay (1.0 g) (footnote: delay to reach mean tumour mass = 0.5 g, compared with untreated) [9, 14]: 14.7 days
Per cent cures (mice with no palpable tumours, day 60) [9, 14]: 30%
Per cent toxicity [9, 14]: 0%
TWI (per cent tumour weight inhibition when untreated control mean = 0.5 g) [9, 14]: 99%
Delay (1.0 g) (footnote: delay to reach mean tumour mass = 0.5 g, compared with untreated) [9, 15]: 33.1 days
Per cent cures (mice with no palpable tumours, day 60) [9, 15]: 70%
Per cent toxicity [9, 15]: 0%
TWI (per cent tumour weight inhibition when untreated control mean = 0.5 g) [9, 15]: 100%
Cure rate [9]: 70%
Delay in tumour growth compared with untreated controls [9]: 33 days
